Consider five compounds from ChEMBL document CHEMBL4699567, “hDM2 protein-binding peptides screened from stapled α-helical peptide phage display libraries with different types of staple linkers” (Bioorg Med Chem Lett, 2020).

SMILES strings stand for the structures. Starred links: 1 amine or outer side, 2 acyl side, 3 side chain; linkers in the order of their positions; H or OH if unused. Positions of bridges follow the written chain, without caps; N, C: chain ends. Residues, ends and D or L forms follow the SMILES beside them. *: point of attachment. 5FAM = O=C1OC2(c3ccc(O)cc3Oc3cc(O)ccc32)c2ccc(C(=O)*)cc21; CH2CONH(CH2)4NHCOCH2 = O=C(C[*:1])NCCCCNC(=O)C[*:2]

For experiment [1], the target named is T1, E3 ubiquitin-protein ligase Mdm2 (Homo sapiens, UniProt Q00987). As to the kind of experiment: Binding affinity to human MDM2 assessed as dissociation constant in presence of 50 uM p53 peptide by fluorescence polarization assay. On the technique in general: In fluorescence polarisation assays a small probe gives low polarisation when free and higher when bound to something large.
T1 sequence (Q00987 whole entry): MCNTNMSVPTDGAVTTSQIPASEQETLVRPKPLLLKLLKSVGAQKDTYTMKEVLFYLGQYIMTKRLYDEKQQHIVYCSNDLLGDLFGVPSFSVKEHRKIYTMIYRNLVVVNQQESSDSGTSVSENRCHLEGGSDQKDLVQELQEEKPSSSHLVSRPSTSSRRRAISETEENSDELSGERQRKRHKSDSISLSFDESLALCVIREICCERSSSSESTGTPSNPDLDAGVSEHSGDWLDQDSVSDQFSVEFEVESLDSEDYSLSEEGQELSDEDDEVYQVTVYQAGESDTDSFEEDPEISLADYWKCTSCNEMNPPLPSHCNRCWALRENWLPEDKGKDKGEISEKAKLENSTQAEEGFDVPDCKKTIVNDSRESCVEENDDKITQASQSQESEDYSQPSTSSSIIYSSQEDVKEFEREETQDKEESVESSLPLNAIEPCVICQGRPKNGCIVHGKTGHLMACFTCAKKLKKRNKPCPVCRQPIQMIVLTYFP

In experiment [2] the target is T1, E3 ubiquitin-protein ligase Mdm2. As to the kind of experiment: Binding affinity to human MDM2 assessed as dissociation constant by fluorescence polarization assay.

As to `CSCC[C@H](NC(=O)[C@H](C)NC(=O)CN)C(=O)N[C@@H](CCC(=O)O)C(=O)N[C@H]1CSCC(=O)NCCCCNC(=O)CSC[C@@H](C(=O)N[C@@H](CCCCN)C(=O)N[C@@H](CCCCN)C(=O)N[C@@H](C)C(=O)NCC(=O)NCC(=O)NCC(=O)NCC(=O)N[C@@H](CCCCNC(=O)c2ccc3c(c2)C(=O)OC32c3ccc(O)cc3Oc3cc(O)ccc32)C(N)=O)NC(=O)[C@H](CCC(=O)O)NC(=O)[C@H](CCCCN)NC(=O)[C@H](CCC(=O)O)NC(=O)[C@H](CCCCN)NC(=O)[C@H](CC(C)C)NC(=O)[C@H](Cc2c[nH]c3ccccc23)NC1=O` (H-GAMECWLKEKECKKAGGGGK(5FAM)-NH2; linker 5-12 via CH2CONH(CH2)4NHCOCH2), the Kd turned out to be 571 µM in experiment [1] and 178 µM in experiment [2]. On the same counts, the results for `CSCC[C@H](NC(=O)[C@H](C)NC(=O)CN)C(=O)N[C@@H](CCC(=O)O)C(=O)N[C@@H](CS)C(=O)N[C@@H](Cc1c[nH]c2ccccc12)C(=O)N[C@@H](CC(C)C)C(=O)N[C@@H](CCCCN)C(=O)N[C@@H](CCC(=O)O)C(=O)N[C@@H](CCCCN)C(=O)N[C@@H](CCC(=O)O)C(=O)N[C@@H](CS)C(=O)N[C@@H](CCCCN)C(=O)N[C@@H](CCC(N)=O)C(=O)N[C@@H](C)C(=O)NCC(=O)NCC(=O)NCC(=O)NCC(=O)N[C@@H](CCCCNC(=O)c1ccc2c(c1)C(=O)OC21c2ccc(O)cc2Oc2cc(O)ccc21)C(N)=O` (H-GAMECWLKEKECKQAGGGGK(5FAM)-NH2) are 436 µM and 195 µM. With `CSCC[C@H](NC(=O)[C@H](C)NC(=O)CN)C(=O)N[C@@H](CCC(=O)O)C(=O)N[C@H]1CSCC(=O)NCCCCNC(=O)CSC[C@@H](C(=O)N[C@@H](CCCCN)C(=O)N[C@@H](CCC(N)=O)C(=O)N[C@@H](C)C(=O)NCC(=O)NCC(=O)NCC(=O)NCC(=O)N[C@@H](CCCCNC(=O)c2ccc3c(c2)C(=O)OC32c3ccc(O)cc3Oc3cc(O)ccc32)C(N)=O)NC(=O)[C@H](CCC(=O)O)NC(=O)[C@H](CCCCN)NC(=O)[C@H](CCC(=O)O)NC(=O)[C@H](CCCCN)NC(=O)[C@H](CC(C)C)NC(=O)[C@H](Cc2c[nH]c3ccccc23)NC1=O` (H-GAMECWLKEKECKQAGGGGK(5FAM)-NH2; linker 5-12 via CH2CONH(CH2)4NHCOCH2), the equilibrium dissociation constant (Kd) in experiment [2] amounted to 140 µM. With `CC[C@H](C)[C@H](NC(=O)[C@H](CCCCN)NC(=O)[C@H](CS)NC(=O)[C@H](CCC(=O)O)NC(=O)[C@H](CCC(N)=O)NC(=O)[C@H](CCC(=O)O)NC(=O)[C@H](CCCCN)NC(=O)[C@H](CC(C)C)NC(=O)[C@H](Cc1c[nH]c2ccccc12)NC(=O)[C@H](CS)NC(=O)[C@H](CCC(=O)O)NC(=O)[C@H](CCSC)NC(=O)[C@H](C)NC(=O)CN)C(=O)N[C@@H](C)C(=O)NCC(=O)NCC(=O)NCC(=O)NCC(=O)N[C@@H](CCCCNC(=O)c1ccc2c(c1)C(=O)OC21c2ccc(O)cc2Oc2cc(O)ccc21)C(N)=O` (H-GAMECWLKEQECKIAGGGGK(5FAM)-NH2), the equilibrium dissociation constant (Kd) was determined as 445 µM in experiment [1] and 116 µM in experiment [2]. Take `CC(C)C[C@H](NC(=O)[C@H](CCC(=O)O)NC(=O)[C@H](CCCCN)NC(=O)[C@H](CC(N)=O)NC(=O)[C@@H](NC(=O)[C@H](CS)NC(=O)[C@H](CCC(=O)O)NC(=O)[C@H](Cc1c[nH]c2ccccc12)NC(=O)[C@H](C)NC(=O)CN)[C@@H](C)O)C(=O)N[C@@H](Cc1c[nH]c2ccccc12)C(=O)N[C@@H](CS)C(=O)N[C@@H](CCCCN)C(=O)N[C@@H](CCC(N)=O)C(=O)N[C@@H](C)C(=O)NCC(=O)NCC(=O)NCC(=O)NCC(=O)N[C@@H](CCCCNC(=O)c1ccc2c(c1)C(=O)OC21c2ccc(O)cc2Oc2cc(O)ccc21)C(N)=O` (H-GAWECTNKELWCKQAGGGGK(5FAM)-NH2): the Kd in experiment [2] stood at 553 µM.

In general, Kd refers to the concentration at which binding is half-saturated.
